Measurements: patent US20240132431A1, “METHOD FOR ALKYLATING ACIDIC FUNCTIONAL GROUP” (Chugai Seiyaku Kabushiki Kaisha, priority 2021, published 2024)

Target: T1, Bcl-2 protein (Recombinant Human Bcl-2 Protein) (Homo sapiens, UniProt P10415)
T1 construct: purchased Novus NBP2-34889
Test: Binding evaluation of mixture library compounds to Bcl-2 using AS-MS (affinity selection mass spectrometry)
Settings: AS-MS, mixture of 1200 compounds, Bcl-2, ASMS Ratio(%)=(A−C)/B×100; for ASMS ratio (%) n = 1: replicate n = 1; for ASMS ratio (%) n = 2: replicate n = 2
How it was run: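 Bcl-2 binding is scored from LC/MS signal retained with protein through gel-filtration spin columns, normalised to unfiltered and protein-free controls. Incubation: 20 μM protein, […] per compound, 1 h, 23° C.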

T1 sequence (P10415 whole entry): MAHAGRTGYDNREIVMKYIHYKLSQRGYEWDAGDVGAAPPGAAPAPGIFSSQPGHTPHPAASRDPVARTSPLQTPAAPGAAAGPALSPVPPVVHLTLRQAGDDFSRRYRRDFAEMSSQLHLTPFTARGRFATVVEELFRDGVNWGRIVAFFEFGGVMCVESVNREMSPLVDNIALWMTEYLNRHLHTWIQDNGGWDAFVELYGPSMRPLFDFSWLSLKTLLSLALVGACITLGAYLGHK

Row | ASMS ratio (%) n = 1 | ASMS ratio (%) n = 2 | SMILES
1 | 0.4% | 3.1% | CCOc1cncc(-c2ccc(C(=O)N3CCN(c4ccc(C(=O)NCC56CC7CC(CC(C7)C5)C6)cc4)CC3)c3ccccc23)c1 [B1A036-01, N-(1-Adamantylmethyl)-4-[4-[4-(5-ethoxypyridin-3-yl)naphthalene-1-carbonyl]piperazin-1-yl]benzamide]
2 | 3.3% | −5.0% | CCOc1cccc(-c2cc(C(=O)N3CCN(c4ccc(C(=O)NCC56CC7CC(CC(C7)C5)C6)cc4)CC3)cc(C(C)(C)C)c2)c1 [B1A037-01, N-(1-Adamantylmethyl)-4-[4-[3-tert-butyl-5-(3-ethoxyphenyl)benzoyl]piperazin-1-yl]benzamide]
3 | 6.5% | −6.4% | CCOc1cncc(-c2cc(C(=O)N3CCN(c4ccc(C(=O)NCC56CC7CC(CC(C7)C5)C6)cc4)CC3)cc(C(C)(C)C)c2)c1 [B1A038-01, N-(1-Adamantylmethyl)-4-[4-[3-tert-butyl-5-(5-ethoxypyridin-3-yl)benzoyl]piperazin-1-yl]benzamide]
4 | 6.3% | −8.4% | CCOc1cccc(-c2cc(C(=O)N3CCN(c4ccc(C(=O)NCC56CC7CC(CC(C7)C5)C6)cc4)CC3)cc(C(F)(F)F)c2)c1 [B1A039-01, N-(1-Adamantylmethyl)-4-[4-[3-(3-ethoxyphenyl)-5-(trifluoromethyl)benzoyl]piperazin-1-yl]benzamide]
5 | 10.4% | 8.4% | CCOc1cncc(-c2cc(C(=O)N3CCN(c4ccc(C(=O)NCC56CC7CC(CC(C7)C5)C6)cc4)CC3)cc(C(F)(F)F)c2)c1 [B1A040-01, N-(1-Adamantylmethyl)-4-[4-[3-(5-ethoxypyridin-3-yl)-5-(trifluoromethyl)benzoyl]piperazin-1-yl]benzamide]
6 | −2.4% | −4.0% | CCOc1cccc(C#Cc2cc(C(=O)N3CCN(c4ccc(C(=O)NCC56CC7CC(CC(C7)C5)C6)cc4)CC3)cc(C(F)(F)F)c2)c1 [B1A041-01, N-(1-Adamantylmethyl)-4-[4-[3-[2-(3-ethoxyphenyl)ethynyl]-5-(trifluoromethyl)benzoyl]piperazin-1-yl]benzamide]
7 | 12.5% | −8.5% | CCOc1cncc(C#Cc2cc(C(=O)N3CCN(c4ccc(C(=O)NCC56CC7CC(CC(C7)C5)C6)cc4)CC3)cc(C(F)(F)F)c2)c1 [B1A042-01, N-(1-Adamantylmethyl)-4-[4-[3-[2-(5-ethoxypyridin-3-yl)ethynyl]-5-(trifluoromethyl)benzoyl]piperazin-1-yl]benzamide]
8 | 3.8% | −2.9% | CCOc1cccc(-c2cnn(-c3cc(C(=O)N4CCN(c5ccc(C(=O)NCC67CC8CC(CC(C8)C6)C7)cc5)CC4)cc(C(F)(F)F)c3)c2)c1 [B1A043-01, N-(1-Adamantylmethyl)-4-[4-[3-[4-(3-ethoxyphenyl)pyrazol-1-yl]-5-(trifluoromethyl)benzoyl]piperazin-1-yl]benzamide]
9 | 2.6% | −1.9% | CCOc1cncc(-c2cnn(-c3cc(C(=O)N4CCN(c5ccc(C(=O)NCC67CC8CC(CC(C8)C6)C7)cc5)CC4)cc(C(F)(F)F)c3)c2)c1 [B1A044-01, N-(1-Adamantylmethyl)-4-[4-[3-[4-(5-ethoxypyridin-3-yl)pyrazol-1-yl]-5-(trifluoromethyl)benzoyl]piperazin-1-yl]benzamide]
10 | 1.1% | −2.2% | CCOc1cccc(-c2ccccc2CN2CCN(c3ccc(C(=O)NCC45CC6CC(CC(C6)C4)C5)cc3)CC2)c1 [B1A045-01, N-(1-Adamantylmethyl)-4-[4-[[2-(3-ethoxyphenyl)phenyl]methyl]piperazin-1-yl]benzamide]
11 | 0.0% | 0.0% | CCOc1cncc(-c2ccccc2CN2CCN(c3ccc(C(=O)NCC45CC6CC(CC(C6)C4)C5)cc3)CC2)c1 [B1A046-01, N-(1-Adamantylmethyl)-4-[4-[[2-(5-ethoxypyridin-3-yl)phenyl]methyl]piperazin-1-yl]benzamide]
12 | 3.2% | 2.5% | CCOc1cccc(-c2ccc(CN3CCN(c4ccc(C(=O)NCC56CC7CC(CC(C7)C5)C6)cc4)CC3)cc2C)c1 [B1A047-01, N-(1-Adamantylmethyl)-4-[4-[[4-(3-ethoxyphenyl)-3-methylphenyl]methyl]piperazin-1-yl]benzamide]
13 | 1.5% | 3.6% | CCOc1cncc(-c2ccc(CN3CCN(c4ccc(C(=O)NCC56CC7CC(CC(C7)C5)C6)cc4)CC3)cc2C)c1 [B1A048-01, N-(1-Adamantylmethyl)-4-[4-[[4-(5-ethoxypyridin-3-yl)-3-methylphenyl]methyl]piperazin-1-yl]benzamide]
14 | 4.1% | −9.1% | CCOc1cccc(-c2ccc(CN3CCN(c4ccc(C(=O)NCC56CC7CC(CC(C7)C5)C6)cc4)CC3)c(CC)c2)c1 [B1A049-01, N-(1-Adamantylmethyl)-4-[4-[[4-(3-ethoxyphenyl)-2-ethylphenyl]methyl]piperazin-1-yl]benzamide]
15 | 0.6% | 3.0% | CCOc1cncc(-c2ccc(CN3CCN(c4ccc(C(=O)NCC56CC7CC(CC(C7)C5)C6)cc4)CC3)c(CC)c2)c1 [B1A050-01, N-(1-Adamantylmethyl)-4-[4-[[4-(5-ethoxypyridin-3-yl)-2-ethylphenyl]methyl]piperazin-1-yl]benzamide]
16 | −5.4% | −4.2% | CCOc1cccc(-c2ccc(CN3CCN(c4ccc(C(=O)NCC56CC7CC(CC(C7)C5)C6)cc4)CC3)cc2F)c1 [B1A051-01, N-(1-Adamantylmethyl)-4-[4-[[4-(3-ethoxyphenyl)-3-fluorophenyl]methyl]piperazin-1-yl]benzamide]
17 | 4.2% | −6.2% | CCOc1cncc(-c2ccc(CN3CCN(c4ccc(C(=O)NCC56CC7CC(CC(C7)C5)C6)cc4)CC3)cc2F)c1 [B1A052-01, N-(1-Adamantylmethyl)-4-[4-[[4-(5-ethoxypyridin-3-yl)-3-fluorophenyl]methyl]piperazin-1-yl]benzamide]
18 | 13.2% | 4.8% | CCOc1cccc(-c2ccc(CN3CCN(c4ccc(C(=O)NCC56CC7CC(CC(C7)C5)C6)cc4)CC3)c(OC)c2)c1 [B1A053-01, N-(1-Adamantylmethyl)-4-[4-[[4-(3-ethoxyphenyl)-2-methoxyphenyl]methyl]piperazin-1-yl]benzamide]
19 | 0.0% | 0.0% | CCOc1cncc(-c2ccc(CN3CCN(c4ccc(C(=O)NCC56CC7CC(CC(C7)C5)C6)cc4)CC3)c(OC)c2)c1 [B1A054-01, N-(1-Adamantylmethyl)-4-[4-[[4-(5-ethoxypyridin-3-yl)-2-methoxyphenyl]methyl]piperazin-1-yl]benzamide]
20 | −0.1% | −14.4% | CCOc1cccc(-c2cc(CN3CCN(c4ccc(C(=O)NCC56CC7CC(CC(C7)C5)C6)cc4)CC3)cc(OCC)c2)c1 [B1A055-01, N-(1-Adamantylmethyl)-4-[4-[[3-ethoxy-5-(3-ethoxyphenyl)phenyl]methyl]piperazin-1-yl]benzamide]
